Molecules are shown by their SMILES.

The target of the experiment is T1, human recombinant OX2 (hOX2) receptors expressed in CHO cells (Homo sapiens, UniProt O43614).
T1 construct: host or cells: CHO cells (hOX2-CHO)
T1 sequence (O43614 1-444): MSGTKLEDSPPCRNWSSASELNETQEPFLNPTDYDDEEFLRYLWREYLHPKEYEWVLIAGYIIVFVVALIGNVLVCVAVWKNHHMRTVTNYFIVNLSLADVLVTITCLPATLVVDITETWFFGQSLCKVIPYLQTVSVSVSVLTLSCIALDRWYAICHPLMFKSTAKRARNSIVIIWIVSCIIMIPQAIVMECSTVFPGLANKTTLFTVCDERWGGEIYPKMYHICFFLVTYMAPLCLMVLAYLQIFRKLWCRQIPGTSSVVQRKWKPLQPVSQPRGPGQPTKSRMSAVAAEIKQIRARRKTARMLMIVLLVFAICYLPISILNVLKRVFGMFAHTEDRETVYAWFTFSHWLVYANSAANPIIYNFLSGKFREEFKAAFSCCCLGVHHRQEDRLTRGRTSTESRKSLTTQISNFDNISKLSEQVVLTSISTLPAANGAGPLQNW
Briefly: IP-1 accumulation assay (IP-One HTRF) in hOX2-CHO cells. The experiment is classed as cell-based. To be noted: 60 min incubation at 37° C., mean of at least two independent experiments, read-out: EC50_OX2R Category. On the procedure: The accumulation of Inositol-1 Monophosphate (IP-1) was measured using IP-One HTRF® Terbium cryptate based assay (Cisbio) in human recombinant OX1 (hOX1) and at OX2 (hOX2) receptors expressed in CHO cells (DiscoverX) according to the manufacturer's instructions for cells tested in suspension.
hOX1-CHO and hOX2-CHO cells were seeded into white 384-well plates at a density of 20,000 cells/well in Hank's Balanced Salt Solution (HBSS) containing 20 mM HEPES pH 7.4, 50 mM, LiCl and 0.1% and Bovine Serum Albumin (BSA).
Compounds of disclosure were tested in an 11 points concentration response curve (CRC) serially diluted in neat DMSO at 200 fold concentrations and added by Echo acoustic liquid handling (Labcyte) to the cells (0.5% DMSO final in the assay). After 60 min of incubation at 37° C. detection reagents, IP1-d2 tracer and anti-IP1-cryptate were diluted in lysis buffer according to the manufacturer's descriptions and added to the cells.
Following 60 min incubation at room temperature, time-resolved fluorescence (HTRF) was measured at 615 nm and 665 nm by Envision Multilabel reader (Perkin Elmer) and the HTRF ratio (A665/A615×10^4) was calculated.
The IP-1 accumulation response was expressed as percentage of the maximal OX-A response.
Curve fitting and EC50 estimations were carried out using a four-parameter logistic model using XLfit Software. Mean data of EC50 are calculated from at least two independent experiments performed in duplicates

In the case of `CN1CCOc2ccccc2-c2cccc(c2F)CC2N(CCCC23COCC(=O)N3)C1=O` (racemic) [Example 63, Rel-(3S,18′S)-24′-fluoro-11′-methyl-8′-oxa-11′,13′-diazaspiro[morpholine-3,17′-tetracyclo[18.3.1.0^2,70.0^13,18]tetracosane]-1′(24′),2′(7′),3′,5′,20′,22′-hexaene-5,12′-dione], the EC50 was 1000 to 10000 nM. As for `O=C1COCC2(CCCN3C(=O)OCCOc4ccccc4-c4cccc(c4F)CC32)N1` (racemic) [Example 65, Rel-(3S, 18′S)-24′-fluoro-8′,11′-dioxa-13′-azaspiro[morpholine-3,17′-tetracyclo[18.3.1.0^2,70.0^13,18]tetracosane]-1′(24′),2′(7′),3′,5′,20′,22′-hexaene-5,12′-dione], the EC50 is above 10000 nM. Under `O=C1CCC2(CCCN3C(=O)COc4ccccc4[C@H]4CC[C@H](CC4)OCC32)N1` (mixture of isomers) [Example 69, Rel-(1′s,2R,16′R,19′s)-8′,18′-dioxa-11′-azaspiro[pyrrolidine-2,15′-tetracyclo-[17.2.2.0^2,70.0^11,16]tricosane]-2′(7′),3′,5′-triene-5,10′-dione] stands 100 to 1000 nM; under `O=C1COc2ccccc2[C@H]2CC[C@H](CC2)OCC2N1CCCC21COC(C(F)(F)F)N1` (mixture of isomers) [Example 70, Rel-(1′s,3S,16′R,19′s)-5-(trifluoromethyl)-8′,18′-dioxa-11′-azaspiro[1,4-oxazolidine-3,15′-tetracyclo[17.2.2.0^2,70.0^11,16]tricosane]-2′(7′),3′,5′-trien-10′-one], 100 to 1000 nM.

Consider `O=C1COCC2(CCCN3C(=O)C4(CC4)COc4cccc(F)c4[C@H]4CC[C@H](CC4)OCC32)N1` (mixture of isomers) [Example 72, (1′s,20′s)-3′-fluorodispiro [cyclopropane-1,10′-[8,19]dioxa-[12]azatetracyclo [18.2.2.0^2,^7.0^12,^17]tetracosane-16′,3″- morpholine]-2′,4′,6′-triene-5″,11′-dione], for which the EC50 was below 100 nM. Turning to `O=C1COCC2(CCCN3C(=O)CCCCOc4cccc(n4)[C@H]4CC[C@H](CC4)OCC32)N1` (mixture of isomers) [Example 76, (1′s,21′s)-7′,20′-dioxa-13′,26′-diazaspiro[morpholine-3,17′-tetracyclo[19.2.2.1^2,60.0^13,18]hexacosane]-2′,4′,6′(26′)-triene-5,12′-dione], the EC50 is below 100 nM. For `CC1CC(=O)N2CCC3(COCC(=O)N3)C2CO[C@H]2CC[C@H](CC2)c2ccccc2O1` (relative stereo) [Example 4, rel-(1′s,3S,16′R,19′s)-9′-methyl-8′,18′-dioxa-12′-azaspiro[morpholine-3,15′-tetracyclo[17.2.2.0^2,70.0^12,16]tricosane]-2′(7′),3′,5′-triene-5,11′-dione], the EC50 is 100 to 1000 nM. `O=C1COCC2(CCN3C(=O)CC(C(F)(F)F)Oc4ccccc4[C@H]4CC[C@H](CC4)OCC32)N1` (relative stereo) [Example 6, rel-(1′s,3S,16′R,19′s)-9′-(trifluoromethyl)-8′,18′-dioxa-12′-azaspiro[morpholine-3,15′-tetracyclo[17.2.2.0^2,70.0^12,16]tricosane]-2′(7′),3′,5′-triene-5,11′-dione]: the EC50 lay within 1000 to 10000 nM. For `O=C1NC2(CCN3C(=O)CCOc4ccccc4[C@H]4CC[C@H](CC4)OCC32)COC1F` (relative stereo) [Example 8, rel-(1′s,3S,16′R,19′s)-6-fluoro-8′,18′-dioxa-12′-azaspiro[morpholine-3,15′-tetracyclo[17.2.2.0^2,70.0^12,16]tricosane]-2′(7′),3′,5′-triene-5,11′-dione], the EC50 is below 100 nM. As for `C[C@@H]1CC2(COCC(=O)N2)C2CO[C@H]3CC[C@H](CC3)c3ccccc3OCCC(=O)N21` (relative stereo) [Example 13, rel-(1′s,3S, 13′R,16′R,19′s)-13′-methyl-8′,18′-dioxa-12′-azaspiro[morpholine-3,15′-tetracyclo[17.2.2.0^2,70.0^12,16]tricosane]-2′(7′),3′,5′-triene-5,11′-dione], the EC50 was below 100 nM. Take `O=C1COc2ccccc2[C@H]2CC[C@H](CC2)OC[C@@H]2N1CCC[C@@]21CO[C@](F)(C(F)(F)F)C(=O)N1` (relative stereo) [Example 71a, rel-(1′s,3S,16′R,19′s)-6 (R)-fluoro-6-(trifluoromethyl)-8′,18′-dioxa-11′-azaspiro[morpholine-3,15′-tetracyclo[17.2.2.0^2,70.0^11,16]tricosane]-2′(7′),3′,5′-triene-5,10′-dione]: the EC50 was below 100 nM. Regarding `O=C1COC[C@@]2(CCN3C(=O)CCOc4ccccc4[C@H]4CC[C@H](CC4)OC[C@H]32)N1` (single isomer, unassigned) [Example 1a], the EC50 is below 100 nM. The figure for `O=C1COC[C@]2(CCN3C(=O)CCOc4ccccc4[C@H]4CC[C@H](CC4)OC[C@@H]32)N1` (single isomer, unassigned) [Example 1b] is above 10000 nM; for `C[C@H]1CC(=O)N2CC[C@]3(COCC(=O)N3)[C@H]2CO[C@H]2CC[C@H](CC2)c2ccccc2O1` (single isomer, unassigned) [Example 4a] it is above 10000 nM; for `C[C@H]1CC(=O)N2CC[C@@]3(COCC(=O)N3)[C@@H]2CO[C@H]2CC[C@H](CC2)c2ccccc2O1` (single isomer, unassigned) [Example 4b, (1′s, 3S,9′S,16′R,19′s)-9′-methyl-8′,18′-dioxa-12′-azaspiro[morpholine-3,15′-tetracyclo[17.2.2.0^2,70.0^12,16]tricosane]-2′(7′),3′,5′-triene-5,11′-dione] it is 100 to 1000 nM. Regarding `C[C@@H]1CC(=O)N2CC[C@@]3(COCC(=O)N3)[C@@H]2CO[C@H]2CC[C@H](CC2)c2ccccc2O1` (single isomer, unassigned) [Example 4c], the EC50 was 100 to 1000 nM. For `C[C@@H]1CC(=O)N2CC[C@]3(COCC(=O)N3)[C@H]2CO[C@H]2CC[C@H](CC2)c2ccccc2O1` (single isomer, unassigned) [Example 4d], the EC50 was above 10000 nM. As to `C[C@@H]1COc2ccccc2[C@H]2CC[C@H](CC2)OC[C@H]2N(CC[C@]23COCC(=O)N3)C1=O` (single isomer, unassigned) [Example 5a], the EC50 was above 10000 nM.

Regarding `C[C@H]1COc2ccccc2[C@H]2CC[C@H](CC2)OC[C@H]2N(CC[C@]23COCC(=O)N3)C1=O` (single isomer, unassigned) [Example 5b], the EC50 is above 10000 nM. The figure for `O=C1COC[C@@]2(CCN3C(=O)CCOc4cccc(F)c4[C@H]4CC[C@H](CC4)OC[C@H]32)N1` (single isomer, unassigned) [Example 10a] is below 100 nM.

Regarding `O=C1COC[C@]2(CCN3C(=O)CCOc4cccc(F)c4[C@H]4CC[C@H](CC4)OC[C@@H]32)N1` (single isomer, unassigned) [Example 10b], the EC50 was above 10000 nM. As to `C[C@@H]1C[C@@]2(COCC(=O)N2)[C@@H]2CO[C@H]3CC[C@H](CC3)c3ccccc3OCCC(=O)N12` (single isomer, unassigned) [Example 13a], the EC50 is below 100 nM. Consider `C[C@@H]1C[C@]2(COCC(=O)N2)[C@H]2CO[C@H]3CC[C@H](CC3)c3ccccc3OCCC(=O)N12` (single isomer, unassigned) [Example 13b], for which the EC50 lay within 100 to 1000 nM. As to `C[C@@H]1C[C@@]2(COCC(=O)N2)[C@@H]2CO[C@H]3CC[C@H](CC3)c3cccc(F)c3OCC(=O)N12` (single isomer, unassigned) [Example 15a], the EC50 was below 100 nM. Under `C[C@@H]1C[C@]2(COCC(=O)N2)[C@H]2CO[C@H]3CC[C@H](CC3)c3cccc(F)c3OCC(=O)N12` (single isomer, unassigned) [Example 15b] stands 1000 to 10000 nM; under `C[C@@H]1C[C@@]2(COCC(=O)N2)[C@@H]2CO[C@H]3CC[C@H](CC3)c3cc(F)cc(F)c3OCC(=O)N12` (single isomer, unassigned) [Example 16a], below 100 nM. Under `C[C@@H]1C[C@]2(COCC(=O)N2)[C@H]2CO[C@H]3CC[C@H](CC3)c3cc(F)cc(F)c3OCC(=O)N12` (single isomer, unassigned) [Example 16b] stands above 10000 nM. As for `C[C@@H]1C[C@]2(COCC(=O)N2)[C@H]2CO[C@H]3CC[C@H](CC3)c3c(F)cccc3OCC(=O)N12` (single isomer, unassigned) [Example 17b], the EC50 lay within 1000 to 10000 nM. Turning to `C[C@@H]1C[C@@]2(COCC(=O)N2)[C@@H]2CO[C@H]3CC[C@H](CC3)c3cc(F)ccc3OCC(=O)N12` (single isomer, unassigned) [Example 18a], the EC50 is below 100 nM.

Values taken from patent publication US20250320227A1, “MACROCYCLIC OREXIN RECEPTOR AGONISTS AND USES THEREOF” (Jazz Pharmaceuticals Ireland Limited, priority 2022, published 2025).
